{"source": "patent US20190313678A1", "about": "“SUGAR-DIPEPTIDE CONJUGATES AS FLAVOR MOLECULES” (NESTEC S.A., priority 2016, published 2019)", "key": {"[1]": {"test": "Sensory evaluation of the compounds in a chicken soup base", "conditions": "for flavor impact in chicken soup base versus reference soup: ANOVA/LSD, alpha 5%; for Sensory inpact on chicken soup: chicken soup base, compounds added at 2 and 0.25 g/L, 12 panelists", "description": "Chicken soups were prepared by dissolving 6 g chicken base powder (detailed recipe shown in Table 1), 1 g monosodium glutamate and 1 g of sodium chloride in 500 mL hot water. 1-Deoxy-D-fructosyl-N-ornithyl-β-alanine, N-ornithyl-β-alanine, 1-deoxy-D-fructosyl-N-ornithine or alternatively 1-deoxy-2-pentulofuranos-1-yl-Ornithine (Rib-Orn) were then added separately at 2 and 0.25 g/L final concentrations.\nThe sensory evaluation was carried out by 12 panelists, previously screened for their sensory abilities. The panelists assessed a maximum of 6 samples per session. They had Vittel water and crackers as mouth cleansers. In all the cases, the panelists were instructed to evaluate the samples for the following attributes: overall flavor persistency, meaty, grilled/popcorn-like, bread-like, sweet, bitter, and salty. The samples were coded with random 3-digit numbers according to a balanced presentation design, heated at approximately 65° C. and then presented in 40 ml brown plastic containers and under red light to minimize appearance bias (the serving was approximately 25 ml per sample).\nThe following statistical tests were used to analyze the sensory raw data: First, the Analysis of Variance (ANOVA) with two factors, products (fixed factor) and subject (random factor) was computed in order to determine if there was any difference among samples. The limit of significance (alpha risk) was set at 5%. […] The limit of significance (alpha risk) was set at 5%."}, "[2]": {"test": "Comparison of soup bases containing Fru-orn versus the mixture of glucose and ornithine", "conditions": "2 g/L (6.82 mmol/L), 6 panelists", "description": "A first soup was prepared by adding 2 g/L (6.82 mmol/L) 1-deoxy-D-fructosyl-N-ornithine in the soup base described above. A second soup was prepared by adding same molar concentration of glucose and ornithine. The solutions were then evaluated by 6 panelists following the same procedure than described above."}, "[3]": {"test": "Sensory evaluation of the compounds in water", "conditions": "2 g/L in water; 12 panelists", "description": "The compounds ornithine, ornithyl-β-alanine, 1-deoxy-D-fructosyl-N-ornithine, 1-deoxy-D-fructosyl-N-ornithyl-β-alanine and 1-deoxy-2-pentulofuranos-1-yl-Ornithine (Rib-Orn) were each dissolved and diluted in water in a final concentration of 2 g/L. The solutions were then evaluated by 12 panelists, which were previously screened and selected for their sensory abilities."}, "[4]": {"test": "Tomato soups with added compound (seasoning compositions)", "conditions": "2 g/L in tomato soup", "description": "Tomato soups can be prepared by dissolving 6 g tomato base powder as can be obtained in the commerce in 500 mL hot water. 1-deoxy-D-fructosyl-N-ornithine or alternatively 1-Deoxy-D-fructosyl-N-ornithyl-β-alanine can be added at a concentration of 2 g/L to the soups in order to improve their taste and flavor profile."}, "[5]": {"conditions": "cited from earlier work; for orosensation effect of subthreshold concentrations: together with L-glutamic acid and sodium and/or potassium ions, Dunkel and Hofmann 2009"}}, "note": "Entries after “also recorded” stand apart in the source; their conditions may differ.", "data": [{"compound": "N[C@@H](CCCNCC1(O)OCC(O)C(O)C1O)C(=O)O", "note": "(stereo partly drawn) [Fru-Orn, 1-deoxy-D-fructosyl-N-ornithine]", "values": [{"measurement": "flavor impact in chicken soup base versus reference soup", "setting": "[1]; 0.25 g/L", "result": "bread flavors were significantly perceived"}, {"measurement": "flavor impact in chicken soup base versus reference soup", "setting": "[1]; 2 g/L", "result": "grilled meat flavor and saltiness were significantly enhanced"}, {"measurement": "Sensory inpact on chicken soup", "setting": "[1]", "result": "grilled/popcorn,; also recorded: bread, saltiness"}, {"measurement": "saltiness versus soup with same molar concentration of glucose and ornithine", "setting": "[2]; tasted with nose-clip", "result": "more salty"}, {"measurement": "chicken flavor versus soup with same molar concentration of glucose and ornithine", "setting": "[2]; tasted without nose-clip", "result": "greater chicken flavor"}, {"measurement": "Flavour property in water (2 g/L)", "setting": "[3]", "result": "salty"}, {"measurement": "grilled savory flavor of tomato soup versus reference soup", "setting": "[4]", "result": "more pronounced grilled savory flavor"}, {"measurement": "perceived saltiness of tomato soup versus reference soup", "setting": "[4]", "result": "slightly more salty"}]}, {"compound": "N[C@@H](CCCNCC1(O)OC[C@@H](O)[C@@H](O)[C@@H]1O)C(=O)NCCC(=O)O", "note": "(stereo partly drawn) [Fru-Orn-βala, 1-deoxy-D-fructosyl-N-ornithyl-β-alanine]", "values": [{"measurement": "grilled and bread attributes of chicken soup versus soup with orn-ala", "setting": "[1]; 2 g/L each", "result": "enhanced significantly; also recorded: increases the desired grilled meat and bread flavor note"}, {"measurement": "overall flavor persistency of chicken soup versus soup with orn-ala", "setting": "[1]; 2 g/L each", "result": "significantly different"}, {"measurement": "perceived bitterness of chicken soup versus soup with orn-ala", "setting": "[1]; 2 g/L each", "result": "significantly decreasing; also recorded: reducing overall bitterness"}, {"measurement": "Sensory inpact on chicken soup", "setting": "[1]", "result": "grilled/popcorn,; also recorded: bread, saltiness"}, {"measurement": "Flavour property in water (2 g/L)", "setting": "[3]", "result": "sweet, bread"}, {"measurement": "grilled savory flavor of tomato soup versus reference soup", "setting": "[4]", "result": "more pronounced grilled savory flavor"}, {"measurement": "perceived saltiness of tomato soup versus reference soup", "setting": "[4]", "result": "slightly more salty"}]}, {"compound": "Cn1cncc1C[C@H](NC(=O)CCN)C(=O)O", "note": "[L-anserine]", "values": [{"measurement": "orosensation effect of subthreshold concentrations", "setting": "[5]", "result": "enhance the typical thick-sour orosensation and white-meaty character"}]}, {"compound": "NCCC(=O)N[C@@H](Cc1cnc[nH]1)C(=O)O", "note": "[L-carnosine]", "values": [{"measurement": "orosensation effect of subthreshold concentrations", "setting": "[5]", "result": "enhance the typical thick-sour orosensation and white-meaty character"}]}, {"compound": "NCCC[C@H](N)C(=O)NCCS(=O)(=O)O", "note": "[L-ornithinyltaurine]", "values": [{"measurement": "bitter masking effects against potassium salts", "setting": "[5]; J. P. Ley 2008", "result": "bitter masking effects"}, {"measurement": "taste produced", "setting": "[5]; Tamura et al. 1989", "result": "salty taste"}]}, {"compound": "NCCC[C@H](N)C(=O)O", "note": "[Orn, L-ornithine]", "values": [{"measurement": "off-taste inhibition in combination with bitter branched chain amino acids", "setting": "[5]; J. P. Ley 2008", "result": "off-taste inhibitor"}]}, {"compound": "NCCC[C@H](N)C(=O)NCCC(=O)O", "note": "[Orn-ala, N-ornithyl-β-alanine, reference compound]", "values": [{"measurement": "flavor impact in chicken soup base versus reference soup", "setting": "[1]; 2 g/L", "result": "no statistically significant differences"}, {"measurement": "Sensory inpact on chicken soup", "setting": "[1]", "result": "none"}, {"measurement": "Flavour property in water (2 g/L)", "setting": "[3]", "result": "astringent"}, {"measurement": "bitter masking effects against potassium salts", "setting": "[5]; J. P. Ley 2008", "result": "bitter masking effects"}]}, {"compound": "N[C@@H](CCCNCC1(O)OC[C@@H](O)[C@H]1O)C(=O)O", "note": "(stereo partly shown) [Rib-Orn, 1-deoxy-2-pentulofuranos-1-yl-ornithine]", "values": [{"measurement": "flavor impact in chicken soup base versus reference soup", "setting": "[1]; 0.25 g/L", "result": "both baked bread flavor and umami taste were significantly enhanced"}, {"measurement": "Sensory inpact on chicken soup", "setting": "[1]", "result": "Grilled/bread,; also recorded: umami"}, {"measurement": "Flavour property in water (2 g/L)", "setting": "[3]", "result": "astringent, sour, metallic and slightly sweet; also recorded: Astringent,"}]}, {"compound": "NCCC(=O)NCC(=O)O", "note": "[β-alanylglycine]", "values": [{"measurement": "orosensation effect of subthreshold concentrations", "setting": "[5]", "result": "enhance the typical thick-sour orosensation and white-meaty character"}]}]}
